Measured values reported in US6531509B2, “Stable gabapentin containing more than 20 ppm of chlorine ion” (Teva Pharmaceutical Industries Ltd., priority 2000, dated 2003).

How the values were obtained:
[1] = Long-term storage stability of purified gabapentin (lactam formation, HPLC vs. standard); type: physicochemical; settings: purified bulk gabapentin
Source text: Gabapentin purified according to these procedures contains less than 0.5% lactam as measured by HPLC vs. standard.

[2] = test system: cardiozole cramp; settings: in animals; cited from earlier work
[3] = according to Augart; cited from earlier work

NCC1(CC(=O)O)CCCCC1 [Gabapentin, 1-(aminomethyl)-1-cyclohexaneacetic acid]
amount of lactam after storage ([1]; a year of storage at 25° C. and 50% relative humidity): less than 0.5 % by weight
conversion of gabapentin to its corresponding lactam ([1]; a year of storage at 25° C. and 60% relative humidity): ≤ 0.2 % by weight of gabapentin
amount of lactam after storage ([1]; a year of storage at 55° C. and 50% relative humidity): less than 0.5 % by weight
effect against cardiozole cramp [2]: protective effect against cardiozole cramp

O=C1CC2(CCCCC2)CN1 [lactam]
toxicity relative to gabapentin [3]: higher toxicity than gabapentin
